Test results as given in the supplement of paper PMC8612539.
≈ marks a conversion by molar mass, not a printed value.

System: Escherichia coli
Test: minimum inhibitory concentration (MIC)
Protocol: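 Broth microdilution MIC (Sensititre BOPO7F bovine plate, CLSI methods) of 19 antimicrobials against field isolates of P. multocida, M. haemolytica, H. somni (deep nasopharyngeal swabs) and E. coli, Enterococcus spp. (rectal swabs) from weaned dairy heifers. Incubation 16-24 h at 35 C. MIC is the lowest concentration preventing visible growth. Values with <= or > lie at the tested range limits. Trimethoprim-sulfamethoxazole is given as the trimethoprim component of a 1:19 mixture.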

CN[C@@H]1[C@H](O)[C@H](NC)[C@H]2O[C@@]3(O)C(=O)C[C@@H](C)O[C@H]3O[C@@H]2[C@H]1O [Spectinomycin]
Conditions	minimum inhibitory concentration [µg/mL]
isolate (source animal id): 8	16 (≈ 48.1 µM)
isolate (source animal id): 9	> 64
isolate (source animal id): 10	64 (≈ 193 µM)
isolate (source animal id): 11	16 (≈ 48.1 µM)
isolate (source animal id): 12	32 (≈ 96.3 µM)
isolate (source animal id): 13	16 (≈ 48.1 µM)
isolate (source animal id): 14	> 64
isolate (source animal id): 15	16 (≈ 48.1 µM)
isolate (source animal id): 16	16 (≈ 48.1 µM)
isolate (source animal id): 98	16 (≈ 48.1 µM)
isolate (source animal id): 99	16 (≈ 48.1 µM)
isolate (source animal id): 100	≤ 8
isolate (source animal id): 101	> 64
isolate (source animal id): 102	16 (≈ 48.1 µM)
isolate (source animal id): 103	> 64
isolate (source animal id): 104	16 (≈ 48.1 µM)
isolate (source animal id): 105	16 (≈ 48.1 µM)
isolate (source animal id): 106	32 (≈ 96.3 µM)
isolate (source animal id): 107	16 (≈ 48.1 µM)
isolate (source animal id): 108	16 (≈ 48.1 µM)
isolate (source animal id): 109	16 (≈ 48.1 µM)
isolate (source animal id): 110	≤ 8
isolate (source animal id): 111	16 (≈ 48.1 µM)
isolate (source animal id): 112	16 (≈ 48.1 µM)
isolate (source animal id): 113	16 (≈ 48.1 µM)
isolate (source animal id): 114	16 (≈ 48.1 µM)
isolate (source animal id): 115	> 64
isolate (source animal id): 116	16 (≈ 48.1 µM)
isolate (source animal id): 117	> 64
isolate (source animal id): 118	16 (≈ 48.1 µM)
isolate (source animal id): 119	> 64
isolate (source animal id): 120	> 64
isolate (source animal id): 121	> 64
isolate (source animal id): 122	> 64
isolate (source animal id): 123	16 (≈ 48.1 µM)
isolate (source animal id): 124	> 64
isolate (source animal id): 125	> 64
isolate (source animal id): 126	> 64
isolate (source animal id): 127	> 64
isolate (source animal id): 128	> 64
isolate (source animal id): 129	16 (≈ 48.1 µM)
isolate (source animal id): 130	> 64
isolate (source animal id): 131	16 (≈ 48.1 µM)
isolate (source animal id): 132	16 (≈ 48.1 µM)
isolate (source animal id): 133	> 64
isolate (source animal id): 134	16 (≈ 48.1 µM)
isolate (source animal id): 135	16 (≈ 48.1 µM)
isolate (source animal id): 136	16 (≈ 48.1 µM)
isolate (source animal id): 137	16 (≈ 48.1 µM)
isolate (source animal id): 138	> 64
isolate (source animal id): 139	> 64
isolate (source animal id): 140	16 (≈ 48.1 µM)
isolate (source animal id): 141	> 64
isolate (source animal id): 142	16 (≈ 48.1 µM)
isolate (source animal id): 143	> 64
isolate (source animal id): 144	16 (≈ 48.1 µM)
isolate (source animal id): 145	> 64
isolate (source animal id): 146	16 (≈ 48.1 µM)
isolate (source animal id): 147	> 64
isolate (source animal id): 148	16 (≈ 48.1 µM)
isolate (source animal id): 149	16 (≈ 48.1 µM)
isolate (source animal id): 150	> 64
isolate (source animal id): 151	16 (≈ 48.1 µM)
isolate (source animal id): 152	16 (≈ 48.1 µM)
isolate (source animal id): 153	16 (≈ 48.1 µM)
isolate (source animal id): 154	16 (≈ 48.1 µM)
isolate (source animal id): 155	> 64
isolate (source animal id): 156	> 64
isolate (source animal id): 157	> 64
isolate (source animal id): 158	16 (≈ 48.1 µM)
isolate (source animal id): 159	≤ 8
isolate (source animal id): 160	> 64
isolate (source animal id): 161	> 64
isolate (source animal id): 162	16 (≈ 48.1 µM)
isolate (source animal id): 163	16 (≈ 48.1 µM)
isolate (source animal id): 164	16 (≈ 48.1 µM)
isolate (source animal id): 165	> 64
isolate (source animal id): 166	≤ 8
isolate (source animal id): 167	16 (≈ 48.1 µM)
isolate (source animal id): 168	16 (≈ 48.1 µM)
isolate (source animal id): 169	16 (≈ 48.1 µM)
isolate (source animal id): 170	16 (≈ 48.1 µM)
isolate (source animal id): 171	16 (≈ 48.1 µM)
isolate (source animal id): 172	16 (≈ 48.1 µM)
isolate (source animal id): 173	16 (≈ 48.1 µM)
isolate (source animal id): 174	16 (≈ 48.1 µM)
isolate (source animal id): 175	16 (≈ 48.1 µM)
isolate (source animal id): 176	16 (≈ 48.1 µM)
isolate (source animal id): 177	32 (≈ 96.3 µM)
isolate (source animal id): 178	16 (≈ 48.1 µM)
isolate (source animal id): 179	16 (≈ 48.1 µM)
isolate (source animal id): 180	16 (≈ 48.1 µM)
isolate (source animal id): 181	> 64
isolate (source animal id): 182	16 (≈ 48.1 µM)
isolate (source animal id): 183	16 (≈ 48.1 µM)
isolate (source animal id): 184	16 (≈ 48.1 µM)
isolate (source animal id): 185	16 (≈ 48.1 µM)
isolate (source animal id): 186	16 (≈ 48.1 µM)
isolate (source animal id): 187	32 (≈ 96.3 µM)
isolate (source animal id): 188	32 (≈ 96.3 µM)

CN(C)[C@@H]1C(O)=C(C(N)=O)C(=O)[C@@]2(O)C(O)=C3C(=O)c4c(O)cccc4[C@@](C)(O)[C@H]3C[C@@H]12 [Tetracycline]
Conditions	minimum inhibitory concentration [µg/mL]
isolate (source animal id): 8	> 8
isolate (source animal id): 9	> 8
isolate (source animal id): 10	> 8
isolate (source animal id): 11	1 (≈ 2.25 µM)
isolate (source animal id): 12	> 8
isolate (source animal id): 13	> 8
isolate (source animal id): 14	> 8
isolate (source animal id): 15	> 8
isolate (source animal id): 16	> 8
isolate (source animal id): 98	> 8
isolate (source animal id): 99	2 (≈ 4.5 µM)
isolate (source animal id): 100	> 8
isolate (source animal id): 101	> 8
isolate (source animal id): 102	> 8
isolate (source animal id): 103	> 8
isolate (source animal id): 104	> 8
isolate (source animal id): 105	> 8
isolate (source animal id): 106	> 8
isolate (source animal id): 107	> 8
isolate (source animal id): 108	> 8
isolate (source animal id): 109	> 8
isolate (source animal id): 110	> 8
isolate (source animal id): 111	> 8
isolate (source animal id): 112	> 8
isolate (source animal id): 113	> 8
isolate (source animal id): 114	> 8
isolate (source animal id): 115	> 8
isolate (source animal id): 116	> 8
isolate (source animal id): 117	> 8
isolate (source animal id): 118	> 8
isolate (source animal id): 119	> 8
isolate (source animal id): 120	> 8
isolate (source animal id): 121	> 8
isolate (source animal id): 122	> 8
isolate (source animal id): 123	> 8
isolate (source animal id): 124	> 8
isolate (source animal id): 125	> 8
isolate (source animal id): 126	> 8
isolate (source animal id): 127	> 8
isolate (source animal id): 128	> 8
isolate (source animal id): 129	> 8
isolate (source animal id): 130	> 8
isolate (source animal id): 131	> 8
isolate (source animal id): 132	> 8
isolate (source animal id): 133	> 8
isolate (source animal id): 134	> 8
isolate (source animal id): 135	2 (≈ 4.5 µM)
isolate (source animal id): 136	> 8
isolate (source animal id): 137	> 8
isolate (source animal id): 138	> 8
isolate (source animal id): 139	> 8
isolate (source animal id): 140	1 (≈ 2.25 µM)
isolate (source animal id): 141	> 8
isolate (source animal id): 142	> 8
isolate (source animal id): 143	> 8
isolate (source animal id): 144	> 8
isolate (source animal id): 145	> 8
isolate (source animal id): 146	> 8
isolate (source animal id): 147	> 8
isolate (source animal id): 148	> 8
isolate (source animal id): 149	> 8
isolate (source animal id): 150	> 8
isolate (source animal id): 151	> 8
isolate (source animal id): 152	> 8
isolate (source animal id): 153	> 8
isolate (source animal id): 154	> 8
isolate (source animal id): 155	> 8
isolate (source animal id): 156	> 8
isolate (source animal id): 157	> 8
isolate (source animal id): 158	> 8
isolate (source animal id): 159	> 8
isolate (source animal id): 160	> 8
isolate (source animal id): 161	> 8
isolate (source animal id): 162	> 8
isolate (source animal id): 163	> 8
isolate (source animal id): 164	> 8
isolate (source animal id): 165	> 8
isolate (source animal id): 166	> 8
isolate (source animal id): 167	> 8
isolate (source animal id): 168	1 (≈ 2.25 µM)
isolate (source animal id): 169	1 (≈ 2.25 µM)
isolate (source animal id): 170	> 8
isolate (source animal id): 171	1 (≈ 2.25 µM)
isolate (source animal id): 172	1 (≈ 2.25 µM)
isolate (source animal id): 173	> 8
isolate (source animal id): 174	> 8
isolate (source animal id): 175	> 8
isolate (source animal id): 176	> 8
isolate (source animal id): 177	> 8
isolate (source animal id): 178	> 8
isolate (source animal id): 179	1 (≈ 2.25 µM)
isolate (source animal id): 180	> 8
isolate (source animal id): 181	> 8
isolate (source animal id): 182	> 8
isolate (source animal id): 183	> 8
isolate (source animal id): 184	> 8
isolate (source animal id): 185	> 8
isolate (source animal id): 186	1 (≈ 2.25 µM)
isolate (source animal id): 187	> 8
isolate (source animal id): 188	> 8
